Among the data in patent US20250382297A1, “INHIBITORS OF FGFR2 AND FGFR3 AND USES THEREOF” (Insilico Medicine IP Limited, priority 2022, published 2025) are IC50 values, retold here.

One experiment has as its target FGFR2 (Homo sapiens (Human), UniProt P21802). Nature of the experiment: FGFR biochemical assay (LanthaScreen TR-FRET kinase assay), FGFR2. (Time-resolved FRET reads energy transfer from a long-lived donor to a nearby acceptor.)
A further experiment concerns the target FGFR1 (Homo sapiens (Human), UniProt P11362). The experiment can be described thus: FGFR biochemical assay (LanthaScreen TR-FRET kinase assay), FGFR1.
For a further experiment, the target named is FGFR3 (Homo sapiens (Human), UniProt P22607). Nature of the experiment: FGFR biochemical assay (LanthaScreen TR-FRET kinase assay), FGFR3.
Where [1] appears, read: read-out: FGFR2 IC50, incubation with enzyme at room temperature for 10 minutes before substrate, ATP 22 μM, FGFR2 0.01 nM.
Where [2] appears, read: read-out: FGFR3 IC50, incubation with enzyme at room temperature for 10 minutes before substrate, ATP 35 μM, FGFR3 0.1 nM.
Where [3] appears, read: read-out: FGFR2 IC50, * incubation at room temperature for 60 minutes before addition of substrate solution, ATP 22 μM, FGFR2 0.01 nM.
The mark [4] stands for this setting: read-out: FGFR3 IC50, * incubation at room temperature for 60 minutes before addition of substrate solution, ATP 35 μM, FGFR3 0.1 nM.

Read-outs that look alike come from different tables or passages of the source.

Chain of FGFR3 (P22607 23-806): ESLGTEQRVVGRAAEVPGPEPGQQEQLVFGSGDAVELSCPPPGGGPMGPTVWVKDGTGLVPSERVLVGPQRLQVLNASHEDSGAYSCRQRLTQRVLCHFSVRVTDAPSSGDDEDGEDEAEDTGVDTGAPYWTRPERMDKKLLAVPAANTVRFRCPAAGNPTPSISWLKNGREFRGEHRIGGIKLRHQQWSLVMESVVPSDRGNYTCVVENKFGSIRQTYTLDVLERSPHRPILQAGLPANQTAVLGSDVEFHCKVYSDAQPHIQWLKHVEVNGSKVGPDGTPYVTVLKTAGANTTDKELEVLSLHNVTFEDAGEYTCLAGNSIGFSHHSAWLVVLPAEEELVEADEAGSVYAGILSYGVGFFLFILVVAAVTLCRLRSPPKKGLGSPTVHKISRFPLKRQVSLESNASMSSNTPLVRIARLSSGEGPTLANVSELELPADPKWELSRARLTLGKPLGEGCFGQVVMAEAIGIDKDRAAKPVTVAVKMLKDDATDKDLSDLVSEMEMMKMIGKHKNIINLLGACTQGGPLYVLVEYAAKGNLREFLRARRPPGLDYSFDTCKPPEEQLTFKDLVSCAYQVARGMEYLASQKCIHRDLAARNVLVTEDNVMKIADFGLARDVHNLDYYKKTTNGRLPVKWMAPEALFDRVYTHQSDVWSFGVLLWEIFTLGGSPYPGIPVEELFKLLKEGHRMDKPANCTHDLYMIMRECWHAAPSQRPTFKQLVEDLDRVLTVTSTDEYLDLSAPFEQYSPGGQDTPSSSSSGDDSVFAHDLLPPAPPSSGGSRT
Chain of FGFR2 (P21802 22-821): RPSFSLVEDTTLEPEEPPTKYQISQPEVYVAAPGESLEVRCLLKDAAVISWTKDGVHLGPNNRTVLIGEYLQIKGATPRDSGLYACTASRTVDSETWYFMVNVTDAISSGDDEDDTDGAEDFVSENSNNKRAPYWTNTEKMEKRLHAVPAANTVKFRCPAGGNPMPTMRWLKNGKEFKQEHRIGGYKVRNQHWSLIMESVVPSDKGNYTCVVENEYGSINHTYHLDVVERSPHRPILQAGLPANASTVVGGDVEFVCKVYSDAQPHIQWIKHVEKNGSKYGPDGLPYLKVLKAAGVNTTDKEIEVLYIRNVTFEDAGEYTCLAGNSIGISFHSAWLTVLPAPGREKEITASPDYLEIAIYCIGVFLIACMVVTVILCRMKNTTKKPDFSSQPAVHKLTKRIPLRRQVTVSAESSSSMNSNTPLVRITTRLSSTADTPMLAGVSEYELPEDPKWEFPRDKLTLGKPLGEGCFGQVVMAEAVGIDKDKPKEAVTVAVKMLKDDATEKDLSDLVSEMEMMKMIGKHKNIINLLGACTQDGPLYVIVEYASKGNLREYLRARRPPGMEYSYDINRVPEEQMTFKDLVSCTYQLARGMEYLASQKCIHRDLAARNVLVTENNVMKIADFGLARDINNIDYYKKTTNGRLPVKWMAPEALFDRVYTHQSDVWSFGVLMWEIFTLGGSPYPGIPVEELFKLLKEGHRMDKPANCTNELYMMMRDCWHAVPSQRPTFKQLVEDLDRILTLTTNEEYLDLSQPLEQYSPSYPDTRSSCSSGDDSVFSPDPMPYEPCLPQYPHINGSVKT
Chain of FGFR1 (P11362 22-822): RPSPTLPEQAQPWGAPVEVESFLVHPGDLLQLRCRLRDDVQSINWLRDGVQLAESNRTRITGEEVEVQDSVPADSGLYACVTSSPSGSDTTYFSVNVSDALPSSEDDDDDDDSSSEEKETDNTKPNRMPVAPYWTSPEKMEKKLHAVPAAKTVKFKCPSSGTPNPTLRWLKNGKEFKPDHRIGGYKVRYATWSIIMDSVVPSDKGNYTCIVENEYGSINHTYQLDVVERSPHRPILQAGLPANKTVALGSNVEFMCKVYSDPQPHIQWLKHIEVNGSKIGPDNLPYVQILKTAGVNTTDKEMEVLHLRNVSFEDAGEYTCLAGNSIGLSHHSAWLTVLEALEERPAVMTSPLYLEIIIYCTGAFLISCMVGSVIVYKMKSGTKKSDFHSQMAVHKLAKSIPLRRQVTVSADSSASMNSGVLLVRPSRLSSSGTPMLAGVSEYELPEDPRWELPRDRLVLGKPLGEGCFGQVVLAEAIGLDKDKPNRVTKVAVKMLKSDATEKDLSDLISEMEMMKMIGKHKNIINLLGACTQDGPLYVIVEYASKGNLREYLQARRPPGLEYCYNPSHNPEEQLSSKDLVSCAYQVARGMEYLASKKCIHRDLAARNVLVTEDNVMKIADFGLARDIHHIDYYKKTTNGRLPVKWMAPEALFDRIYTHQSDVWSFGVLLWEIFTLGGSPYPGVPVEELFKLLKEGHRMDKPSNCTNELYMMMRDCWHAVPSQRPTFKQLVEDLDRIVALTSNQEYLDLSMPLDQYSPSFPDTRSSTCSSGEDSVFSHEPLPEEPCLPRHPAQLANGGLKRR
Procedure for FGFR1: (§1) Convert Ratio values to percent inhibition values (Percent inhibition=(max−sample Ratio)/(max−min)*100) where “min” means the Ratio of no enzyme control and “max” means the Ratio of DMSO control. • Data are analyzed and curve fitting is performed by XLFit Excel add-in version 5.4.0.8. The IC50 calculation equation is: Y=Bottom+(Top-Bottom)/(1+ (IC50/X)^HillSlope.
Procedure for FGFR2: as §1
Procedure for FGFR3: as §1

`C=C(F)C(=O)Nc1ccc(-c2c(-c3cccc(C(=O)NC)c3)c(C(N)=O)c3cnc(C)cn23)c(F)c1` [Example 75, 6-(2-fluoro-4-(2-fluoroacrylamido)phenyl)-3-methyl-7-(3-(methylcarbamoyl)phenyl)pyrrolo[1,2-a]pyrazine-8-carboxamide]: the IC50 at FGFR2, on FGFR1 and against FGFR3 was 100 to 1000 nM in each case.

For `C=CC(=O)Nc1ccc(-c2c(-c3ccc(Oc4cccc(C)n4)cc3)c(C(N)=O)c3cnc(C4COC4)cn23)cc1` [Example 76, 6-(4-acrylamidophenyl)-7-(4-((6-methylpyridin-2-yl)oxy)phenyl)-3-(oxetan-3-yl)pyrrolo[1,2-a]pyrazine-8-carboxamide], the IC50 (in general, the concentration needed to halve the response being measured) at FGFR2 (setting [1]) was less than 10 nM; against FGFR1, 10 to 100 nM; at FGFR3 (setting [2]) it was less than 10 nM.

Consider `C=CC(=O)Nc1ccc(-c2c(-c3ccc(Oc4cccc(C)n4)cc3)c(C(N)=O)c3cnc(C#N)cn23)cc1` [Example 77, 6-(4-acrylamidophenyl)-3-cyano-7-(4-((6-methylpyridin-2-yl)oxy)phenyl)pyrrolo[1,2-a]pyrazine-8-carboxamide], for which the IC50 is 10 to 100 nM at FGFR2; more than 1000 nM at FGFR1 (read-out: FGFR1 IC50, incubation with enzyme at room temperature for 10 minutes before substrate, ATP 28 μM, FGFR1 0.01 nM); 100 to 1000 nM against FGFR3.

Consider `C=CC(=O)Nc1ccc(-c2c(-c3ccc(Oc4nccc(C)n4)c(F)c3)c(C(N)=O)c3cnc(CO)cn23)cc1` [Example 78, 6-(4-acrylamidophenyl)-7-(3-fluoro-4-((4-methylpyrimidin-2-yl)oxy)phenyl)-3-(hydroxymethyl)pyrrolo[1,2-a]pyrazine-8-carboxamide], for which the IC50 at FGFR2 (setting [1]) is less than 10 nM; against FGFR1, 100 to 1000 nM; on FGFR3 (setting [2]), less than 10 nM.

For `Cc1ccnc(Oc2ccc(-c3c(C(N)=O)c4cnc(CO)cn4c3-c3ccc(NC(=O)/C=C/CN(C)C)cc3)cc2)n1` [Example 79, (E)-6-(4-(4-(dimethylamino)but-2-enamido)phenyl)-3-(hydroxymethyl)-7-(4-((4-methylpyrimidin-2-yl)oxy)phenyl)pyrrolo[1,2-a]pyrazine-8-carboxamide], the results for the concentration for half-maximal inhibition (IC50) at FGFR2 (setting [1]), against FGFR1 and against FGFR3 were less than 10 nM, 10 to 100 nM and 10 to 100 nM, respectively.

In the case of `C=C(F)C(=O)Nc1ccc(-c2c(-c3ccc(Oc4nccc(C)n4)cc3)c(C(N)=O)c3cnc(CCO)cn23)cc1` [Example 80, 6-(4-(2-fluoroacrylamido)phenyl)-3-(2-hydroxyethyl)-7-(4-((4-methylpyrimidin-2-yl)oxy)phenyl)pyrrolo[1,2-a]pyrazine-8-carboxamide], the IC50 on FGFR2 (setting [3]) was less than 10 nM; against FGFR1, 100 to 1000 nM; against FGFR3, 10 to 100 nM.

Regarding `C=C(F)C(=O)Nc1ccc(-c2c(-c3ccc(Oc4nccc(C)n4)cc3)c(C(N)=O)c3cnc(CCO)cn23)c(F)c1` [Example 81, 6-(2-fluoro-4-(2-fluoroacrylamido)phenyl)-3-(2-hydroxyethyl)-7-(4-((4-methylpyrimidin-2-yl)oxy)phenyl)pyrrolo[1,2-a]pyrazine-8-carboxamide], the IC50 on FGFR2 (setting [3]) is less than 10 nM; at FGFR1, 10 to 100 nM; on FGFR3 (setting [4]), less than 10 nM.

Take `C=C(F)C(=O)Nc1ccc(-c2c(-c3ccc(Oc4nccc(C)n4)c(F)c3)c(C(N)=O)c3cnc(CCO)cn23)c(F)c1` [Example 82, 7-(3-fluoro-4-((4-methylpyrimidin-2-yl)oxy)phenyl)-6-(2-fluoro-4-(2-fluoroacrylamido)phenyl)-3-(2-hydroxyethyl)pyrrolo[1,2-a]pyrazine-8-carboxamide]: the IC50 on FGFR2 (setting [3]) is less than 10 nM; against FGFR1, 10 to 100 nM; at FGFR3 (setting [4]), less than 10 nM.

Regarding `C=C(F)C(=O)Nc1ccc(-c2c(-c3ccc(Oc4nccc(C)n4)cc3)c(C(N)=O)c3cnc(NC(C)=O)cn23)cc1` [Example 83, 3-acetamido-6-(4-(2-fluoroacrylamido)phenyl)-7-(4-((4-methylpyrimidin-2-yl)oxy)phenyl)pyrrolo[1,2-a]pyrazine-8-carboxamide], the concentration for half-maximal inhibition (IC50) on FGFR2 (setting [3]) is less than 10 nM; against FGFR1 it was 100 to 1000 nM; on FGFR3 it was 10 to 100 nM.

Turning to `C=CC(=O)Nc1ccc(-c2c(-c3ccc(Oc4cccc(C)n4)cc3)c(C(N)=O)c3ccnc(C)n23)cc1` [Example 84, 7-(4-acrylamidophenyl)-1-methyl-6-(4-((6-methylpyridin-2-yl)oxy)phenyl)pyrrolo[1,2-c]pyrimidine-5-carboxamide], the IC50 is less than 10 nM at FGFR2 (setting [1]), 100 to 1000 nM against FGFR1 and 10 to 100 nM against FGFR3.

For the compound `C=C(F)C(=O)Nc1ccc(-c2c(-c3ccc(Oc4nccc(C)n4)c(F)c3)c(C(N)=O)c3cc(C)ncn23)cc1` [Example 85, 6-(3-fluoro-4-((4-methylpyrimidin-2-yl)oxy)phenyl)-7-(4-(2-fluoroacrylamido)phenyl)-3-methylpyrrolo[1,2-c]pyrimidine-5-carboxamide], the figures for the IC50 on FGFR2 (setting [3]), on FGFR1 and against FGFR3 were less than 10 nM, 100 to 1000 nM and 10 to 100 nM, respectively.

On to `C=C(F)C(=O)Nc1ccc(-c2c(-c3ccc(Oc4nccc(C)n4)c(F)c3)c(C(N)=O)c3cc(-c4cnn(C)c4)ncn23)cc1` [Example 86, 6-(3-fluoro-4-((4-methylpyrimidin-2-yl)oxy)phenyl)-7-(4-(2-fluoroacrylamido)phenyl)-3-(1-methyl-1H-pyrazol-4-yl)pyrrolo[1,2-c]pyrimidine-5-carboxamide], for which the IC50 at FGFR2 (setting [3]) was less than 10 nM; on FGFR1 it was 10 to 100 nM; against FGFR3, 10 to 100 nM.

Regarding `C=C(F)C(=O)Nc1ccc(-c2c(-c3ccc(Oc4nccc(C)n4)c(F)c3)c(C(N)=O)c3cc(C)cnn23)cc1` [Example 87, 6-(3-fluoro-4-((4-methylpyrimidin-2-yl)oxy)phenyl)-7-(4-(2-fluoroacrylamido)phenyl)-3-methylpyrrolo[1,2-b]pyridazine-5-carboxamide], the results for the IC50 on FGFR2 (setting [3]), on FGFR1 and against FGFR3 were less than 10 nM, 10 to 100 nM and 10 to 100 nM, respectively.

For the compound `C=C(F)C(=O)Nc1ccc(-c2c(-c3ccc(Oc4nccc(C)n4)c(F)c3)c(C(N)=O)c3cc(-c4cnn(C)c4)ncn23)c(F)c1` [Example 91, 6-(3-fluoro-4-((4-methylpyrimidin-2-yl)oxy)phenyl)-7-(2-fluoro-4-(2-fluoroacrylamido)phenyl)-3-(1-methyl-1H-pyrazol-4-yl)pyrrolo[1,2-c]pyrimidine-5-carboxamide], the IC50 was less than 10 nM on FGFR2 (setting [3]), 10 to 100 nM against FGFR1 and less than 10 nM on FGFR3 (setting [4]).

Regarding `C=C(F)C(=O)Nc1ccc(-c2c(-c3ccc(Oc4nccc(C)n4)c(F)c3)c(C(N)=O)c3cc(-c4cnn(C)c4)ncn23)c(C)c1` [Example 92, 6-(3-fluoro-4-((4-methylpyrimidin-2-yl)oxy)phenyl)-7-(4-(2-fluoroacrylamido)-2-methylphenyl)-3-(1-methyl-1H-pyrazol-4-yl)pyrrolo[1,2-c]pyrimidine-5-carboxamide], the half-inhibitory concentration (IC50) at FGFR2 (setting [3]) was less than 10 nM; on FGFR1 it was 10 to 100 nM; on FGFR3 (setting [4]), less than 10 nM.

For `C=C(F)C(=O)Nc1ccc(-c2c(-c3ccc(Oc4nccc(C)n4)c(F)c3)c(C(N)=O)c3ccc(C)nn23)cc1` [Example 93, 6-(3-fluoro-4-((4-methylpyrimidin-2-yl)oxy)phenyl)-7-(4-(2-fluoroacrylamido)phenyl)-2-methylpyrrolo[1,2-b]pyridazine-5-carboxamide], the figures for the IC50 against FGFR2, at FGFR1 and against FGFR3 were 10 to 100 nM, 100 to 1000 nM and 10 to 100 nM, respectively.

Take `C=C(F)C(=O)Nc1ccc(-c2c(-c3ccc(Oc4nccc(C)n4)c(F)c3)c(C(N)=O)c3ccc(C)nn23)c(C)c1` [Example 94, 6-(3-fluoro-4-((4-methylpyrimidin-2-yl)oxy)phenyl)-7-(4-(2-fluoroacrylamido)-2-methylphenyl)-2-methylpyrrolo[1,2-b]pyridazine-5-carboxamide]: the IC50 on FGFR2 (setting [3]) was less than 10 nM; against FGFR1, 10 to 100 nM; against FGFR3 it was 10 to 100 nM.

In the case of `C=C(F)C(=O)N1CCc2cc(-c3c(-c4ccc(Oc5nccc(C)n5)c(F)c4)c(C(N)=O)c4ccc(C)nn34)ccc21` [Example 95, 6-(3-fluoro-4-((4-methylpyrimidin-2-yl)oxy)phenyl)-7-(1-(2-fluoroacryloyl)indolin-5-yl)-2-methylpyrrolo[1,2-b]pyridazine-5-carboxamide], the IC50 against FGFR2 was 10 to 100 nM; on FGFR1 (read-out: FGFR1 IC50, * incubation at room temperature for 60 minutes before addition of substrate solution, ATP 28 μM, FGFR1 0.01 nM), more than 1000 nM; on FGFR3 it was 100 to 1000 nM.

As to `C=C(F)C(=O)N1CCc2cc(-c3c(-c4ccc(Oc5nccc(C)n5)c(F)c4)c(C(N)=O)c4ccc(C)nn34)c(C)cc21` [Example 96, 6-(3-fluoro-4-((4-methylpyrimidin-2-yl)oxy)phenyl)-7-(1-(2-fluoroacryloyl)-6-methylindolin-5-yl)-2-methylpyrrolo[1,2-b]pyridazine-5-carboxamide], the IC50 was less than 10 nM at FGFR2 (setting [3]), 10 to 100 nM on FGFR1 and less than 10 nM at FGFR3 (setting [4]).

`C=C(F)C(=O)N1CCc2cc(-c3c(-c4ccc(Oc5nccc(C)n5)c(F)c4)c(C(N)=O)c4cnc(C)cn34)c(C)cc21` [Example 97, 7-(3-fluoro-4-((4-methylpyrimidin-2-yl)oxy)phenyl)-6-(1-(2-fluoroacryloyl)-6-methylindolin-5-yl)-3-methylpyrrolo[1,2-a]pyrazine-8-carboxamide]: the IC50 at FGFR2 (setting [3]) was less than 10 nM; against FGFR1 it was 10 to 100 nM; at FGFR3 (setting [4]), less than 10 nM.
